From patent US20240132457A1, “3-(2-(BENZO[D]THIAZOL-2-YL)-2-(PHENYLSUFONAMIDO)ETHYL)BENZIMIDAMIDE DERIVATIVES AND RELATED COMPOUNDS AS TMPRSS2 INHIBITORS FOR THE TREATMENT OF VIRAL INFECTIONS” (INTEGERBIO, INC., priority 2020, published 2024) come the findings set out here.

This experiment deals with T1, Recombinant human TMPRSS2 protein (106-492 aa) (Homo sapiens, UniProt O15393).
T1 construct: Human TMPRSS2-(AA 106-492)-; purchased CusaBio CSB-YP023924HU; host or cells: yeast
Briefly: TMPRSS2 Assay 1 (Example 41), fluorogenic Boc-Gln-Ala-Arg-AMC cleavage. In kind it is biochemical. Particulars: TMPRSS2 10 nM, substrate 25 μM, 20 min pre-incubation. Here is the method: The enzyme (TMPRSS2, CusaBio cat #CSB-YP023924HU. Recombinant human TMPRSS2 protein (106-492 aa)N-terminal 6×His-tagged (“6×His” disclosed as SEQ ID NO: 4), expressed in yeast cells; MW=44.8 kDa, lyophilized from 20 mM: Tris HCl, 0.5 M NaCl, 6% Trehalose, pH 8.0, >85% purity as determined by SDS-PAGE. Uniprot: 015393; 10 nM in the reaction) and substrate (Boc-Gln-Ala-Arg-AMC; Enzo Cat #BML-P237-0005, MW=581.76 Da. 25 μM in the reaction) were prepared in Reaction Buffer (50 mM Tris-HCl pH 8, 150 mM NaCl, 0.005% Brij35, 1% DMSO). After the enzyme solution was delivered into the reaction well, the compounds in DMSO were delivered to the reaction mixture by using Acoustic Technology (Echo 550, LabCyte Inc. Sunnyvale, CA) in nanoliter range. After 20 min pre-incubation, the substrate solution was delivered into the reaction well to initiate the reaction. The enzyme activities were monitored every 5 min as a time-course measurement of the increase in fluorescence signal from fluorescently-labeled peptide substrate for 120 min. at room temperature. Data was analyzed by taking slope*(signal/time) of linear portion of measurement. The slope was calculated using Excel, and the curve fits were performed using Prism software.

The structures appear in SMILES notation. Where only a bound is given, the exact number is not on record here.

T1 sequence (O15393 106-492): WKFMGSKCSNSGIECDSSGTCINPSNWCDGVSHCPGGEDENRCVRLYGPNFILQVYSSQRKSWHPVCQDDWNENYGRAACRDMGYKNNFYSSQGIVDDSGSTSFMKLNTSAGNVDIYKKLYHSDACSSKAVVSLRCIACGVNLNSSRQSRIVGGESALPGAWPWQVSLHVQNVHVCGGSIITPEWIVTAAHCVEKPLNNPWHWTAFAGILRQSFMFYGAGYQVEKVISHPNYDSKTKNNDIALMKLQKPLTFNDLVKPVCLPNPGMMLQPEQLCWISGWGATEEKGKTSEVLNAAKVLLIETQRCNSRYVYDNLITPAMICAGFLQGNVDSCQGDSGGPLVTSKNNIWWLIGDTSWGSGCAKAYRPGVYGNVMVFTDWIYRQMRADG

For the compound `N=C(N)c1cccc(CC(NS(=O)(=O)c2cccc(-c3ccc(Cl)cc3Cl)c2)c2nccs2)c1` (single isomer, unassigned) [Compound 5 (Isomer 3), 3-[2-{2′,4′-Dichloro-[1,1′-biphenyl]-3-sulfonamido}-2-(1,3-thiazol-2-yl)ethyl]benzene-1-carboximidamide], the IC50 is under 10 µM.
